According to patent US9642869B2, “Boronic acid derivatives and therapeutic uses thereof” (Rempex Pharmaceuticals, Inc., priority 2013, dated 2017):
Read-outs that look alike come from different tables or passages of the source.

Tests used:
SHV-5 ec308 [1] = assay: Aztreonam potentiation (MPC@4); format: cell-based; settings: minimum BLI concentration inhibiting growth with 4 μg/mL aztreonam
CMY-6 EC1010 = assay: Aztreonam potentiation (MPC@4); format: cell-based; settings: minimum BLI concentration inhibiting growth with 4 μg/mL aztreonam
CTX-M-15 KP1009 [2] = assay: Aztreonam potentiation (MPC@4); format: cell-based; settings: minimum BLI concentration inhibiting growth with 4 μg/mL aztreonam
[3] = Salt/complex formation to maintain the monomeric form (solution pH, monomer by HPLC); format: physicochemical
Protocol: The effect of additives that would form a salt or complex with the boronic acid derivatives was evaluated in order to identify those that would strongly favor the monomeric form at an acceptable pH for IV infusion (pH 4-8). […] The pH of the resulting homogeneous solution was measured with a pH meter and the purity was monitored by HPLC. Several bases and complexing agents were screened to identify those that would afford the highest monomer content as salt/complex with a desired pH. […] Oligomerization was more pronounced at higher concentrations with some bases and complexing agents. Among all the bases screened, the meglumine complex gave the highest percentage of monomeric form at the desired pH.

TEM-10 ec302 = format: cell-based
[4] = Intravenous pharmacokinetics; format: in vivo; settings: rat, plasma, rats, IV infusion over 0.5 hours, read-out: Free Cl (converted)
Protocol: Rats (n=3 per compound) were administered by a single infusion. IV doses were infused over 0.5 hours via an indwelling femoral vein cannula. Plasma (˜0.3 mL) samples were collected from each rat at designated time points up to 24 hours. Blood samples were centrifuged within 5 min of collection at 12000 g for 5 min to obtain plasma. The plasma samples were stored at −80° C. until analyzed. Data were analyzed using WinNonlin.

CTX-M-15 KP1009 [5] = format: cell-based
ECL1002 [6] = format: cell-based; settings: minimum BLI concentration inhibiting growth with tigemonam at 4 μg/mL
KPC-2 KP1004 = assay: Aztreonam potentiation (MPC@4); format: cell-based; settings: minimum BLI concentration inhibiting growth with 4 μg/mL aztreonam
CTX-M-14 KP1005 = format: cell-based
ECL1002 [7] = assay: Aztreonam potentiation (MPC@4); format: cell-based; settings: minimum BLI concentration inhibiting growth with 4 μg/mL aztreonam
OXA-48 KP1086 = assay: Biapenem potentiation (MPC@1); format: cell-based; settings: minimum BLI concentration inhibiting growth with 1 μg/mL biapenem
Protocol: (§1) Biapenem was present in the test medium at 1 μg/mL. […] Table 3 summarizes the BLI potency of biapenem potentiation (MPC@1) for two strains overexpressing class A (KPC) and class D (OXA-48) carbapenemases. Biapenem MIC for each strain is also shown.

KP1004 KPC-2 = assay: Biapenem potentiation (MPC@1); format: cell-based; settings: minimum BLI concentration inhibiting growth with 1 μg/mL biapenem
Protocol: as §1

SHV-5 ec308 [8] = format: cell-based; settings: minimum BLI concentration inhibiting growth with tigemonam at 4 μg/mL
OXA-48 = OXA-48 (Klebsiella pneumoniae, UniProt Q6XEC0); assay: Inhibition of nitrocefin cleavage by purified enzyme (Ki); format: biochemical; settings: nitrocefin reporter substrate, 10 min preincubation; read-out: Ki (OXA-48, NCF)
How it was run: (§2)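 Steps: enzyme plus inhibitor dilutions in reaction buffer; 10 min at room temperature; add nitrocefin; read absorbance at 490 nm each 10 sec for 10 min.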

SHV-12 = SHV-12 (Klebsiella pneumoniae, UniProt P0AD64, E235K/G234S/L31Q); assay: as above; format: biochemical; settings: nitrocefin reporter substrate, 10 min preincubation; read-out: Ki (SHV-12, NCF)
How it was run: as §2

[9] = Compound 13 2 mg/mL in water, Pyridine-2-methanol, 2 equivalents
[10] = Compound 13 3 mg/mL in water, L-Lysine, 2 equivalents
[11] = Compound 13 10 mg/mL in water, 0.5N NaOH, 1 equivalent
[12] = Compound 13 10 mg/mL in water, 0.5N NaOH, 2 equivalents
[13] = Compound 13 10 mg/mL in water, Diethanolamine, 2 equivalents
[14] = Compound 13 10 mg/mL in water, Ethanolamine, 2 equivalents
[15] = Compound 13 10 mg/mL in water, Tris, 2 equivalents
[16] = Compound 13 50 mg/mL in water, Tris, 2 equivalents
[17] = Compound 13 50 mg/mL in water, Tris, 3 equivalents

Sequence of SHV-12 (P0AD64 22-286 L31Q/G234S/E235K): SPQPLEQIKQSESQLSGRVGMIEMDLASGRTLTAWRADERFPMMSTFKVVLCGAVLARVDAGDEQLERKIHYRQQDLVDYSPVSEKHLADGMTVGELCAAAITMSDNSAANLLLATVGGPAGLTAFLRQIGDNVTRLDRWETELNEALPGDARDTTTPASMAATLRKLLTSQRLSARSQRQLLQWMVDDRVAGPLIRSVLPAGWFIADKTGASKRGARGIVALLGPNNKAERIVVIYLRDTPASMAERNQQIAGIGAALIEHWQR
Sequence of OXA-48 (Q6XEC0 23-265 limits assumed): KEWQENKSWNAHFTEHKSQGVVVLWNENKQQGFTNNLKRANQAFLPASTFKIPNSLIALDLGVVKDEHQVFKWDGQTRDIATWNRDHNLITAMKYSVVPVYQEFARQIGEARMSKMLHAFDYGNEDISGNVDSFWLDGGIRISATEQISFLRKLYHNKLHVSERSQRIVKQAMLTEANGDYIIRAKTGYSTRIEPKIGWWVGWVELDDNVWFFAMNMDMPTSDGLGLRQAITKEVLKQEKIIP

CSCC(=O)N[C@H]1Cc2cccc(C(=O)O)c2OB1O [Compound 13, (R)-2-hydroxy-3-(2-(methylthio)acetamido)-3,4-dihydro-2H-benzo[e][1,2]oxaborinine-8-carboxylic acid]
AZT MPC4 SHV-5 ec308 (SHV-5 ec308 [1]): X (MIC of less than 1 μg/mL)
AZT MPC4 CMY-6 EC1010 (CMY-6 EC1010): X (MIC of less than 1 μg/mL)
AZT MPC4 CTX-M-15 KP1009 (CTX-M-15 KP1009 [2]): X (MIC of less than 1 μg/mL)
Monomer purity by HPLC (%) [3, 9]: 78%
pH [3, 9]: 5.5
Monomer purity by HPLC (%) [3, 10]: 97.3%
pH [3, 10]: 8.9
Monomer purity by HPLC (%) [3, 11]: 51.3%
pH [3, 11]: 7.3
Monomer purity by HPLC (%) [3, 12]: 60.9%
pH [3, 12]: 8.4
Monomer purity by HPLC (%) [3, 13]: 92.2%
pH [3, 13]: 11
Monomer purity by HPLC (%) [3, 14]: 97.1%
pH [3, 14]: 11
pH ([3]; Compound 13 10 mg/mL in water, Meglumine, 2 equivalents): 7.1
Monomer purity by HPLC (%) [3, 15]: 94.7%
pH [3, 15]: 7.8
pH ([3]; Compound 13 50 mg/mL in water, Meglumine, 2 equivalents): 7.2
Monomer purity by HPLC (%) [3, 16]: 89.7%
pH [3, 16]: 7.7
Monomer purity by HPLC (%) [3, 17]: 95.4%
pH [3, 17]: 8.5
TIG MPC4 TEM-10 ec302 (TEM-10 ec302): Y (key: X: MIC of less than 1 μg/mL; Y: MIC of 1 μg/mL to 10 μg/mL; Z: MIC of greater than 10 μg/mL)
clearance ([4]; dose 20 mg/kg): 41.2 mL/min/kg
TIG MPC4 CTX-M-15 KP1009 (CTX-M-15 KP1009 [5]): X (key: X: MIC of less than 1 μg/mL; Y: MIC of 1 μg/mL to 10 μg/mL; Z: MIC of greater than 10 μg/mL)
TIG MPC4 ECL1002 (ECL1002 [6]): X (MIC of less than 1 μg/mL)
AZT MPC4 KPC-2 KP1004 (KPC-2 KP1004): X (MIC of less than 1 μg/mL)
TIG MPC4 CTX-M-14 KP1005 (CTX-M-14 KP1005): X (key: X: MIC of less than 1 μg/mL; Y: MIC of 1 μg/mL to 10 μg/mL; Z: MIC of greater than 10 μg/mL)
AZT MPC4 ECL1002 (ECL1002 [7]): X (MIC of less than 1 μg/mL)
BPM MPC1 OXA-48 KP1086 (OXA-48 KP1086): Y (MIC of 1 μg/mL to 10 μg/mL)
BPM MPC1 KP1004 KPC-2 (KP1004 KPC-2): X (MIC of less than 1 μg/mL)
TIG MPC4 SHV-5 ec308 (SHV-5 ec308 [8]): X (MIC of less than 1 μg/mL)

NC(=O)CC(=O)N[C@H]1Cc2cccc(C(=O)O)c2OB1O [Compound 16, (R)-3-(3-amino-3-oxopropanamido)-2-hydroxy-3,4-dihydro-2H-benzo[e][1,2]oxaborinine-8-carboxylic acid]
AZT MPC4 SHV-5 ec308 (SHV-5 ec308 [1]): X (MIC of less than 1 μg/mL)
AZT MPC4 CMY-6 EC1010 (CMY-6 EC1010): X (MIC of less than 1 μg/mL)
AZT MPC4 CTX-M-15 KP1009 (CTX-M-15 KP1009 [2]): X (MIC of less than 1 μg/mL)
clearance ([4]; dose 10 mg/kg): 14.5 mL/min/kg
TIG MPC4 CTX-M-15 KP1009 (CTX-M-15 KP1009 [5]): X (key: X: MIC of less than 1 μg/mL; Y: MIC of 1 μg/mL to 10 μg/mL; Z: MIC of greater than 10 μg/mL)
TIG MPC4 ECL1002 (ECL1002 [6]): X (MIC of less than 1 μg/mL)
AZT MPC4 KPC-2 KP1004 (KPC-2 KP1004): Y (MIC of 1 μg/mL to 10 μg/mL)
TIG MPC4 CTX-M-14 KP1005 (CTX-M-14 KP1005): Y (key: X: MIC of less than 1 μg/mL; Y: MIC of 1 μg/mL to 10 μg/mL; Z: MIC of greater than 10 μg/mL)
AZT MPC4 ECL1002 (ECL1002 [7]): X (MIC of less than 1 μg/mL)
BPM MPC1 OXA-48 KP1086 (OXA-48 KP1086): Y (MIC of 1 μg/mL to 10 μg/mL)
BPM MPC1 KP1004 KPC-2 (KP1004 KPC-2): X (MIC of less than 1 μg/mL)
TIG MPC4 SHV-5 ec308 (SHV-5 ec308 [8]): Y (MIC of 1 μg/mL to 10 μg/mL)
Ki (OXA-48): < 1 nM
Ki (SHV-12): < 1 nM
